The source made the active and inactive calls. The calls are words filed in the database; no cut-off is given here.
System: Heart
Experiment: Antiarrhythmic activity against ouabain-induced arrhythmia in guinea pig right ventricle assessed as reversal of cardiac arrhythmia to normal rhythm at 3 uM
Format: functional, tissue-based
Conditions: Cavia porcellus
With `OC[C@H]1O[C@@H](O[C@@H](CC#Cc2ccc(O)cc2)[C@H](O)c2ccc(O)c(O)c2)[C@H](O)[C@@H](O)[C@@H]1O` the Activity was “inactive”.
With `CCCCO[C@@H](c1ccc(O)c(O)c1)[C@H](CC#Cc1ccc(O)c(O)c1)O[C@@H]1O[C@H](CO)[C@@H](O)[C@H](O)[C@H]1O` the Activity was “inactive”.

System: Heart
Experiment: Antiarrhythmic activity against ouabain-induced arrhythmia in guinea pig right ventricle assessed as reversal of cardiac arrhythmia to normal rhythm at 1 uM
Format: functional, tissue-based
Conditions: Cavia porcellus
With `OC[C@H]1O[C@@H](O[C@@H](CC#Cc2ccc(O)cc2)[C@H](O)c2ccc(O)c(O)c2)[C@H](O)[C@@H](O)[C@@H]1O` the Activity was “inactive”.
In the case of `CCCCO[C@@H](c1ccc(O)c(O)c1)[C@H](CC#Cc1ccc(O)c(O)c1)O[C@@H]1O[C@H](CO)[C@@H](O)[C@H](O)[C@H]1O`, the Activity is reported as “inactive”.

System: Heart
Experiment: Antiarrhythmic activity against ouabain-induced arrhythmia in guinea pig right atria assessed as reversal of cardiac arrhythmia to normal rhythm at 30 uM
Format: functional, tissue-based
Conditions: Cavia porcellus
For `OC[C@H]1O[C@@H](O[C@@H](CC#Cc2ccc(O)cc2)[C@H](O)c2ccc(O)c(O)c2)[C@H](O)[C@@H](O)[C@@H]1O`, the Activity was “inactive”.

System: Heart
Experiment: Antiarrhythmic activity against ouabain-induced arrhythmia in guinea pig right atria assessed as reversal of cardiac arrhythmia to normal rhythm at 10 uM
Format: functional, tissue-based
Conditions: Cavia porcellus
With `OC[C@H]1O[C@@H](O[C@@H](CC#Cc2ccc(O)cc2)[C@H](O)c2ccc(O)c(O)c2)[C@H](O)[C@@H](O)[C@@H]1O` the Activity was “inactive”.
For `CCCCO[C@@H](c1ccc(O)c(O)c1)[C@H](CC#Cc1ccc(O)c(O)c1)O[C@@H]1O[C@H](CO)[C@@H](O)[C@H](O)[C@H]1O`, the Activity was “inactive”.

System: Heart
Experiment: Antiarrhythmic activity against ouabain-induced arrhythmia in guinea pig right atria assessed as reversal of cardiac arrhythmia to normal rhythm at 3 uM
Format: functional, tissue-based
Conditions: Cavia porcellus
With `OC[C@H]1O[C@@H](O[C@@H](CC#Cc2ccc(O)cc2)[C@H](O)c2ccc(O)c(O)c2)[C@H](O)[C@@H](O)[C@@H]1O` the Activity was “inactive”.

System: Heart
Experiment: Antiarrhythmic activity against ouabain-induced arrhythmia in guinea pig right atria assessed as reversal of cardiac arrhythmia to normal rhythm at 1 uM
Format: functional, tissue-based
Conditions: Cavia porcellus
For `OC[C@H]1O[C@@H](O[C@@H](CC#Cc2ccc(O)cc2)[C@H](O)c2ccc(O)c(O)c2)[C@H](O)[C@@H](O)[C@@H]1O`, the Activity was “inactive”.

System: not listed separately
Experiment: Effect on 2 Hz electrically driven contractile tension in WKY rat right ventricle at 30 uM relative to control
Format: functional, Heart right ventricle
Conditions: not given
`OC[C@H]1O[C@@H](O[C@@H](CC#Cc2ccc(O)cc2)[C@H](O)c2ccc(O)c(O)c2)[C@H](O)[C@@H](O)[C@@H]1O` showed an Activity of 94.2%.
With `CCCCO[C@@H](c1ccc(O)c(O)c1)[C@H](CC#Cc1ccc(O)c(O)c1)O[C@@H]1O[C@H](CO)[C@@H](O)[C@H](O)[C@H]1O` the Activity was 92.2%.

System: not listed separately
Experiment: Effect on 2 Hz electrically driven contractile tension in WKY rat right ventricle at 10 uM relative to control
Format: functional, Heart right ventricle
Conditions: not given
For `OC[C@H]1O[C@@H](O[C@@H](CC#Cc2ccc(O)cc2)[C@H](O)c2ccc(O)c(O)c2)[C@H](O)[C@@H](O)[C@@H]1O`, the Activity was 95.2%.
For `CCCCO[C@@H](c1ccc(O)c(O)c1)[C@H](CC#Cc1ccc(O)c(O)c1)O[C@@H]1O[C@H](CO)[C@@H](O)[C@H](O)[C@H]1O`, the Activity was 96.8%.

System: not listed separately
Experiment: Effect on 2 Hz electrically driven contractile tension in WKY rat right ventricle at 3 uM relative to control
Format: functional, Heart right ventricle
Conditions: not given
`OC[C@H]1O[C@@H](O[C@@H](CC#Cc2ccc(O)cc2)[C@H](O)c2ccc(O)c(O)c2)[C@H](O)[C@@H](O)[C@@H]1O` gave an Activity of 99.2%.
`CCCCO[C@@H](c1ccc(O)c(O)c1)[C@H](CC#Cc1ccc(O)c(O)c1)O[C@@H]1O[C@H](CO)[C@@H](O)[C@H](O)[C@H]1O` gave an Activity of 100.4%.

System: not listed separately
Experiment: Effect on 2 Hz electrically driven contractile tension in WKY rat right ventricle at 1 uM relative to control
Format: functional, Heart right ventricle
Conditions: not given
`OC[C@H]1O[C@@H](O[C@@H](CC#Cc2ccc(O)cc2)[C@H](O)c2ccc(O)c(O)c2)[C@H](O)[C@@H](O)[C@@H]1O` showed an Activity of 98.4%.
For `CCCCO[C@@H](c1ccc(O)c(O)c1)[C@H](CC#Cc1ccc(O)c(O)c1)O[C@@H]1O[C@H](CO)[C@@H](O)[C@H](O)[C@H]1O`, the Activity was 100%.

System: not listed separately
Experiment: Effect on 2 Hz electrically driven contractile tension in WKY rat right ventricle at 0.3 uM relative to control
Format: functional, Heart right ventricle
Conditions: not given
Work on `CCCCO[C@@H](c1ccc(O)c(O)c1)[C@H](CC#Cc1ccc(O)c(O)c1)O[C@@H]1O[C@H](CO)[C@@H](O)[C@H](O)[C@H]1O` yielded an Activity of 102%.

System: Left cardiac atrium
Experiment: Effect on 2 Hz electrically driven contractile tension in WKY rat left atria at 30 uM relative to control
Format: functional
Conditions: not given
`OC[C@H]1O[C@@H](O[C@@H](CC#Cc2ccc(O)cc2)[C@H](O)c2ccc(O)c(O)c2)[C@H](O)[C@@H](O)[C@@H]1O` showed an Activity of 116.3%.
`CCCCO[C@@H](c1ccc(O)c(O)c1)[C@H](CC#Cc1ccc(O)c(O)c1)O[C@@H]1O[C@H](CO)[C@@H](O)[C@H](O)[C@H]1O` showed an Activity of 103.8%.

System: Left cardiac atrium
Experiment: Effect on 2 Hz electrically driven contractile tension in WKY rat left atria at 10 uM relative to control
Format: functional
Conditions: not given
Work on `OC[C@H]1O[C@@H](O[C@@H](CC#Cc2ccc(O)cc2)[C@H](O)c2ccc(O)c(O)c2)[C@H](O)[C@@H](O)[C@@H]1O` yielded an Activity of 119.3%.
Work on `CCCCO[C@@H](c1ccc(O)c(O)c1)[C@H](CC#Cc1ccc(O)c(O)c1)O[C@@H]1O[C@H](CO)[C@@H](O)[C@H](O)[C@H]1O` yielded an Activity of 105%.

System: Left cardiac atrium
Experiment: Effect on 2 Hz electrically driven contractile tension in WKY rat left atria at 3 uM relative to control
Format: functional
Conditions: not given
For `OC[C@H]1O[C@@H](O[C@@H](CC#Cc2ccc(O)cc2)[C@H](O)c2ccc(O)c(O)c2)[C@H](O)[C@@H](O)[C@@H]1O`, the Activity was 111.5%.
`CCCCO[C@@H](c1ccc(O)c(O)c1)[C@H](CC#Cc1ccc(O)c(O)c1)O[C@@H]1O[C@H](CO)[C@@H](O)[C@H](O)[C@H]1O` gave an Activity of 101.1%.

System: Left cardiac atrium
Experiment: Effect on 2 Hz electrically driven contractile tension in WKY rat left atria at 1 uM relative to control
Format: functional
Conditions: not given
In the case of `OC[C@H]1O[C@@H](O[C@@H](CC#Cc2ccc(O)cc2)[C@H](O)c2ccc(O)c(O)c2)[C@H](O)[C@@H](O)[C@@H]1O`, the Activity is reported as 106.8%.
With `CCCCO[C@@H](c1ccc(O)c(O)c1)[C@H](CC#Cc1ccc(O)c(O)c1)O[C@@H]1O[C@H](CO)[C@@H](O)[C@H](O)[C@H]1O` the Activity was 95.3%.

System: Left cardiac atrium
Experiment: Effect on 2 Hz electrically driven contractile tension in WKY rat left atria at 0.3 uM relative to control
Format: functional
Conditions: not given
Work on `CCCCO[C@@H](c1ccc(O)c(O)c1)[C@H](CC#Cc1ccc(O)c(O)c1)O[C@@H]1O[C@H](CO)[C@@H](O)[C@H](O)[C@H]1O` yielded an Activity of 98.8%.

System: Heart
Experiment: Antiarrhythmic activity against ouabain-induced arrhythmia in guinea pig right ventricle assessed as reversal of cardiac arrhythmia to normal rhythm at 10 uM
Format: functional, tissue-based
Conditions: Cavia porcellus
For `OC[C@H]1O[C@@H](O[C@@H](CC#Cc2ccc(O)cc2)[C@H](O)c2ccc(O)c(O)c2)[C@H](O)[C@@H](O)[C@@H]1O`, the Activity was “inactive”.
In the case of `CCCCO[C@@H](c1ccc(O)c(O)c1)[C@H](CC#Cc1ccc(O)c(O)c1)O[C@@H]1O[C@H](CO)[C@@H](O)[C@H](O)[C@H]1O`, the Activity is reported as “inactive”.

System: Heart
Experiment: Antiarrhythmic activity against ouabain-induced arrhythmia in guinea pig right ventricle assessed as reversal of cardiac arrhythmia to normal rhythm at 30 uM
Format: functional, tissue-based
Conditions: Cavia porcellus
In the case of `OC[C@H]1O[C@@H](O[C@@H](CC#Cc2ccc(O)cc2)[C@H](O)c2ccc(O)c(O)c2)[C@H](O)[C@@H](O)[C@@H]1O`, the Activity is reported as “inactive”.

System: Right cardiac atrium
Experiment: Effect on spontaneous contractile tension in WKY rat right atria at 1 uM relative to control
Conditions: not given
Molecule `OC[C@H]1O[C@@H](O[C@@H](CC#Cc2ccc(O)cc2)[C@H](O)c2ccc(O)c(O)c2)[C@H](O)[C@@H](O)[C@@H]1O` has an Activity of 97.5%.
Molecule `CCCCO[C@@H](c1ccc(O)c(O)c1)[C@H](CC#Cc1ccc(O)c(O)c1)O[C@@H]1O[C@H](CO)[C@@H](O)[C@H](O)[C@H]1O` has an Activity of 94.3%.

System: Right cardiac atrium
Experiment: Effect on spontaneous contractile tension in WKY rat right atria at 3 uM relative to control
Conditions: not given
In the case of `OC[C@H]1O[C@@H](O[C@@H](CC#Cc2ccc(O)cc2)[C@H](O)c2ccc(O)c(O)c2)[C@H](O)[C@@H](O)[C@@H]1O`, the Activity is reported as 98.3%.
For `CCCCO[C@@H](c1ccc(O)c(O)c1)[C@H](CC#Cc1ccc(O)c(O)c1)O[C@@H]1O[C@H](CO)[C@@H](O)[C@H](O)[C@H]1O`, the Activity was 91.6%.

System: Right cardiac atrium
Experiment: Effect on spontaneous contractile tension in WKY rat right atria at 10 uM relative to control
Conditions: not given
In the case of `OC[C@H]1O[C@@H](O[C@@H](CC#Cc2ccc(O)cc2)[C@H](O)c2ccc(O)c(O)c2)[C@H](O)[C@@H](O)[C@@H]1O`, the Activity is reported as 94.5%.
`CCCCO[C@@H](c1ccc(O)c(O)c1)[C@H](CC#Cc1ccc(O)c(O)c1)O[C@@H]1O[C@H](CO)[C@@H](O)[C@H](O)[C@H]1O` showed an Activity of 87.8%.

System: Right cardiac atrium
Experiment: Effect on spontaneous contractile tension in WKY rat right atria at 30 uM relative to control
Conditions: not given
In the case of `OC[C@H]1O[C@@H](O[C@@H](CC#Cc2ccc(O)cc2)[C@H](O)c2ccc(O)c(O)c2)[C@H](O)[C@@H](O)[C@@H]1O`, the Activity is reported as 94.8%.
Work on `CCCCO[C@@H](c1ccc(O)c(O)c1)[C@H](CC#Cc1ccc(O)c(O)c1)O[C@@H]1O[C@H](CO)[C@@H](O)[C@H](O)[C@H]1O` yielded an Activity of 86.4%.

System: Heart
Experiment: Effect on spontaneously beating heart rate in WKY rat right atria at 1 uM relative to control
Conditions: not given
For `OC[C@H]1O[C@@H](O[C@@H](CC#Cc2ccc(O)cc2)[C@H](O)c2ccc(O)c(O)c2)[C@H](O)[C@@H](O)[C@@H]1O`, the Activity was 97.5%.
For `CCCCO[C@@H](c1ccc(O)c(O)c1)[C@H](CC#Cc1ccc(O)c(O)c1)O[C@@H]1O[C@H](CO)[C@@H](O)[C@H](O)[C@H]1O`, the Activity was 99%.

System: Heart
Experiment: Effect on spontaneously beating heart rate in WKY rat right atria at 3 uM relative to control
Conditions: not given
In the case of `OC[C@H]1O[C@@H](O[C@@H](CC#Cc2ccc(O)cc2)[C@H](O)c2ccc(O)c(O)c2)[C@H](O)[C@@H](O)[C@@H]1O`, the Activity is reported as 97.5%.
For `CCCCO[C@@H](c1ccc(O)c(O)c1)[C@H](CC#Cc1ccc(O)c(O)c1)O[C@@H]1O[C@H](CO)[C@@H](O)[C@H](O)[C@H]1O`, the Activity was 98.4%.

System: Heart
Experiment: Effect on spontaneously beating heart rate in WKY rat right atria at 10 uM relative to control
Conditions: not given
For `OC[C@H]1O[C@@H](O[C@@H](CC#Cc2ccc(O)cc2)[C@H](O)c2ccc(O)c(O)c2)[C@H](O)[C@@H](O)[C@@H]1O`, the Activity was 98.5%.
With `CCCCO[C@@H](c1ccc(O)c(O)c1)[C@H](CC#Cc1ccc(O)c(O)c1)O[C@@H]1O[C@H](CO)[C@@H](O)[C@H](O)[C@H]1O` the Activity was 98.4%.

System: Heart
Experiment: Effect on spontaneously beating heart rate in WKY rat right atria at 30 uM relative to control
Conditions: not given
Work on `OC[C@H]1O[C@@H](O[C@@H](CC#Cc2ccc(O)cc2)[C@H](O)c2ccc(O)c(O)c2)[C@H](O)[C@@H](O)[C@@H]1O` yielded an Activity of 98.5%.
`CCCCO[C@@H](c1ccc(O)c(O)c1)[C@H](CC#Cc1ccc(O)c(O)c1)O[C@@H]1O[C@H](CO)[C@@H](O)[C@H](O)[C@H]1O` showed an Activity of 97.4%.

System: Right cardiac atrium
Experiment: Effect on spontaneous contractile tension in WKY rat right atria at 0.3 uM relative to control
Conditions: not given
In the case of `CCCCO[C@@H](c1ccc(O)c(O)c1)[C@H](CC#Cc1ccc(O)c(O)c1)O[C@@H]1O[C@H](CO)[C@@H](O)[C@H](O)[C@H]1O`, the Activity is reported as 95.5%.

System: Heart
Experiment: Effect on spontaneously beating heart rate in WKY rat right atria at 0.3 uM relative to control
Conditions: not given
With `OC[C@H]1O[C@@H](O[C@@H](CC#Cc2ccc(O)cc2)[C@H](O)c2ccc(O)c(O)c2)[C@H](O)[C@@H](O)[C@@H]1O` the Activity was 100%.
For `CCCCO[C@@H](c1ccc(O)c(O)c1)[C@H](CC#Cc1ccc(O)c(O)c1)O[C@@H]1O[C@H](CO)[C@@H](O)[C@H](O)[C@H]1O`, the Activity was 100%.
